Test results taken from the NIST ThermoML archive (doi:10.1007/s10765-007-0223-x).

Assays:
[1] = xn = mol fraction of the nth substance listed; settings: 101 kPa, Liquid; for speed of sound: Single path-length method
[2] = 101 kPa, Liquid; for speed of sound: Single path-length method

COC(C)(C)C [2-methoxy-2-methylpropane] + CCc1ccccc1
[1], x1 = 1
Settings | mass density [kg/m3] | speed of sound [m/s]
288.15 K | 744.861 | 1083.4
290.65 K | 742.259 | 1071.6
293.15 K | 739.654 | 1060
295.65 K | 737.036 | 1048.5
298.15 K | 734.406 | 1036.9
300.65 K | 731.766 | 1025.4
303.15 K | 729.112 | 1013.9
305.65 K | 726.444 | 1002.4
308.15 K | 723.763 | 990.99
310.65 K | 721.069 | 979.62
313.15 K | 718.357 | 968.16
315.65 K | 715.636 | 956.8
318.15 K | 712.897 | 945.54
320.65 K | 710.141 | 934.24
323.15 K | 707.381 | 922.97

CC(C)(C)O [2-methylpropan-2-ol]
[2]
Settings | mass density [kg/m3] | speed of sound [m/s]
301.65 K | 777.762 | 1109
303.15 K | 775.212 | 1099
305.65 K | 772.623 | 1088.3
308.15 K | 770.015 | 1077.7
310.65 K | 767.391 | 1067.2
313.15 K | 764.739 | 1056.7
315.65 K | 762.054 | 1046.1
318.15 K | 759.355 | 1035.7
320.65 K | 756.633 | 1025.2
323.15 K | 753.891 | 1014.8

CC(C)(C)O [2-methylpropan-2-ol] + COC(C)(C)C
[1], x2 = 0
Settings | mass density [kg/m3] | speed of sound [m/s]
301.65 K | 777.762 | 1109
303.15 K | 775.212 | 1099
305.65 K | 772.623 | 1088.3
308.15 K | 770.015 | 1077.7
310.65 K | 767.391 | 1067.2
313.15 K | 764.739 | 1056.7
315.65 K | 762.054 | 1046.1
318.15 K | 759.355 | 1035.7
320.65 K | 756.633 | 1025.2
323.15 K | 753.891 | 1014.8
